PubChem BioAssay (NCI)
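1) Cells in 96-well plates. 2) Compound, 48 h, 5 concentrations. 3) Linear interpolation between surrounding doses. 4) Unreached endpoint = highest concentration. Definition used: TGI = concentration required for complete inhibition of growth.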

Key:
Test in all cases: NCI anticancer screen, dose series, 48 h
[1] = test system: ACHN renal
[2] = test system: CAKI-1 renal
[3] = test system: EKVX NSCLC
[4] = test system: HL-60(TB) leukemia
[5] = test system: MDA-MB-231 breast
[6] = test system: NCI-H23 lung
[7] = test system: OVCAR-8 ovarian
[8] = test system: RXF 393 renal
[9] = test system: SK-OV-3 ovarian
[10] = test system: U251 CNS
[11] = test system: UACC-62 melanoma
[12] = test system: HOP-92 NSCLC
[13] = test system: LOX IMVI melanoma
[14] = test system: OVCAR-4 ovarian
[15] = test system: SNB-75 CNS

Row | SMILES | TGI [1] [µM] | TGI [2] [µM] | TGI [3] [µM] | TGI [4] [µM] | TGI [5] [µM] | TGI [6] [µM] | TGI [7] [µM] | TGI [8] [µM] | TGI [9] [µM] | TGI [10] [µM] | TGI [11] [µM] | TGI [12] [µM] | TGI [13] [µM] | TGI [14] [µM] | TGI [15] [µM]
1 | COc1c(-c2ccc(F)cc2)oc2c(CC(=O)O)cccc2c1=O | > 100 | 71.5 | > 100 | > 100 | > 100 | > 100 | > 100 | > 100 | > 100 | > 100 | > 100 | – | – | – | –
2 | O=C(O)c1ccc(Nc2nc3ccc(C(F)(F)F)cc3nc2C(=O)O)cc1 | > 100 | > 100 | > 100 | > 100 | > 100 | > 100 | > 100 | > 100 | > 100 | > 100 | > 100 | > 100 | > 100 | > 100 | > 100
3 | Clc1ccc2c(c1)CC1C[N+]3=C(CCCCC3)C1=C2 (stereo not drawn) | > 100 | > 100 | > 100 | > 100 | > 100 | > 100 | > 100 | > 100 | > 100 | > 100 | > 100 | 95.2 | > 100 | > 100 | 4.56
4 | COc1ccccc1/C=C1\CCC(CN2CCOCC2)C1=O (stereo not drawn) | 30 | 32.1 | 30.6 | 6.42 | 11.5 | 43.5 | 16.9 | 30.6 | > 57.5 | 34.2 | 30.3 | 40.2 | 15.7 | 35.6 | 46.3
5 | COc1cc(C2SCC(=O)N2c2ccc(Cl)cc2)cc(OC)c1OC (stereo not drawn) | > 100 | > 100 | > 60.1 | 29.2 | > 100 | > 100 | > 100 | 71.2 | > 100 | > 100 | – | > 100 | > 100 | > 100 | > 100
6 | CCCCCCC(O)C(=O)OC1C2C(CC1(C)C)C(O)C13OC1C(O)C1(CO1)[C@@]23C (stereo partly drawn) | – | > 100 | > 100 | > 100 | > 100 | > 100 | > 100 | 59.4 | > 100 | > 100 | > 100 | – | > 100 | > 100 | 31.2
7 | CCOC(=O)c1c(Br)c(-c2ccc([N+](=O)[O-])cc2)c(Br)n1C | > 10 | > 10 | > 10 | > 10 | > 10 | > 10 | > 10 | – | > 10 | > 10 | > 10 | > 10 | > 10 | > 10 | > 10
8 | O=C(O)c1ccccc1/C=N\N(CCO)C1=NCCN1 | > 100 | – | > 100 | > 100 | > 100 | > 100 | > 100 | > 100 | > 100 | > 100 | > 100 | > 100 | > 100 | > 100 | > 100
9 | CC(C)C1CCC(=O)CC1CCCCC1CC(=O)CC1O[Si](C)(C)C(C)(C)C (stereo not drawn) | 15.2 | 19.4 | 36.1 | – | 40.5 | 33.7 | 13 | 27.8 | 25.7 | 5.84 | 17.1 | 13.1 | 9.28 | 29.3 | 26
10 | CCOC(=O)CN1C(=O)c2c(NC(=O)C(=O)O)cccc2S1(=O)=O | > 100 | > 100 | > 100 | > 100 | > 100 | > 100 | > 100 | > 100 | > 100 | > 100 | > 100 | > 100 | > 100 | > 100 | –
11 | O=C1NC(NNc2ccccc2)=N/C1=C\c1ccco1 | 25.9 | 30.6 | 46.7 | 90.3 | 54.7 | 45.9 | 32.7 | 28.6 | > 100 | 39.8 | 17.3 | 30.6 | – | 32.7 | > 100
12 | COc1ccc2nc3c([N+](=O)[O-])ccc4c3c(c2c1)N=CN4CCN(C)C | 16.6 | 5.71 | 18 | 0.616 | 10.7 | 21.1 | 19.3 | – | 28.9 | 24.5 | 27.4 | 26.1 | 14.6 | 34.9 | 12.1
13 | CC(NNC(=S)N1CCCC1)c1cccnn1 (stereo not drawn) | 4.68 | > 100 | – | > 100 | > 100 | > 100 | – | 0.671 | > 65.5 | > 100 | 7.45 | – | > 100 | > 76.9 | > 28.7
14 | O=C1/C(=C/c2cccc([N+](=O)[O-])c2)Cc2ccccc21 | > 100 | > 100 | > 100 | > 100 | > 100 | > 100 | > 100 | – | > 100 | > 100 | > 100 | > 100 | > 100 | > 100 | > 100
15 | Cc1cnc2c(c1)C(=O)N(c1ccc(Br)cc1)S2(=O)=O | > 100 | > 100 | > 100 | > 100 | > 100 | > 100 | > 100 | – | > 100 | > 100 | > 100 | – | > 100 | > 100 | > 100
16 | S=C1C(CCCOCc2ccccc2)C2CCCC23CC2(CCN13)OCCS2 (stereo not drawn) | > 10 | > 10 | > 10 | > 10 | > 10 | > 10 | > 10 | > 10 | > 10 | > 10 | – | > 10 | > 10 | > 10 | > 10
17 | CC(Cn1c(=O)oc2ccccc21)N(C)C (stereo not drawn) | > 100 | > 100 | > 100 | > 100 | > 100 | > 100 | > 100 | > 100 | > 100 | > 100 | > 100 | – | > 100 | – | > 100
